Data from ChEMBL document CHEMBL5126507, “P2Y12 antagonists: Approved drugs, potential naturally isolated and synthesised compounds, and related in-silico studies” (Eur J Med Chem, 2022).
Each block holds one molecule with its values, some of them ahead of it.

Experiments:
[1] = Antiplatelet activity in human platelet rich plasma assessed as inhibition of ADP-induced platelet aggregation preincubated for 5 mins followed by ADP addition and measured after 20 mins by microplate reader analysis; type: functional, cell-based
P2Y purinoceptor 12 [2] = target: T1, P2Y purinoceptor 12 (Homo sapiens, UniProt Q9H244); experiment: Inhibition of 2-MeS-ADP induced P2Y12 (unknown origin) signalling expressed in CHO cells membrane incubated for 45 mins by 35S-GTPgammaS assay; type: functional, cell membranes
T1 sequence (Q9H244 whole entry): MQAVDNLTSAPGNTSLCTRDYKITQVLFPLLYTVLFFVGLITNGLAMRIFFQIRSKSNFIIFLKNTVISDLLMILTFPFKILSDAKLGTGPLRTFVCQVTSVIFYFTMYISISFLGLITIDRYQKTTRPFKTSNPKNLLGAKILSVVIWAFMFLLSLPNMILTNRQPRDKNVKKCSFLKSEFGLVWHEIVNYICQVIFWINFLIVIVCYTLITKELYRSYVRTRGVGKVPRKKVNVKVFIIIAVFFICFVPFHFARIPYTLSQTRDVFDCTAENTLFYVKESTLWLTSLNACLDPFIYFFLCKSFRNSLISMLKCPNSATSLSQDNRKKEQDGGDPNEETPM

[3] = Antiplatelet activity in human platelet rich plasma assessed as inhibition of ADP-induced platelet aggregation at 10 uM preincubated for 2 mins followed by ADP addition by turbidimetric method relative to control; type: functional; set-up: scale not given: the % may be the effect or the level left
[4] = Antiplatelet activity in human platelet rich plasma assessed as inhibition of thrombin-induced platelet aggregation at 3 uM preincubated for 2 mins followed by thrombin addition by turbidimetric method relative to control; type: functional; set-up: scale not given: the % may be the effect or the level left
[5] = Antiplatelet activity in rabbit platelet rich plasma assessed as inhibition of ADP-induced platelet aggregation preincubated for 5 mins followed by ADP addition and measured after 5 mins by turbidimetric method; type: functional, cell-based; details: Oryctolagus cuniculus
[6] = Antiplatelet activity in human platelet rich plasma assessed as inhibition of collagen-induced platelet aggregation at 3 uM preincubated for 2 mins followed by collagen addition by turbidimetric method relative to control; type: functional; set-up: scale not given: the % may be the effect or the level left
[7] = Antiplatelet activity in human platelet rich plasma assessed as inhibition of ADP-induced platelet aggregation preincubated for 2 mins followed by ADP addition for 5 mins; type: functional, cell-based
[8] = Antiplatelet activity in human platelet rich plasma assessed as inhibition of ADP-induced platelet aggregation preincubated for 2 mins followed by ADP addition and measured after 6 mins by Born method; type: functional, cell-based
P2Y purinoceptor 12 [9] = target: T1, P2Y purinoceptor 12; experiment: Displacement of tritium-labeled 2MeSADP from human P2Y12 expressed in CHO cells measured after 2 hrs by scintillation counting method; type: cell-based
P2Y purinoceptor 12 [10] = target: T1, P2Y purinoceptor 12; experiment: Displacement of 2-MeS[3H]-ADP from P2Y12 (unknown origin) expressed in HEK293 cells preincubated for 5 mins followed by 2-MeS[3H]-ADP addition and measured after 30 mins by Topcount beta counter analysis; type: cell-based
[11] = Anti-platelet aggregation activity in rat platelets assessed as inhibition of ADP-induced aggregation pre-treated for 5 mins followed by ADP addition and measured after 5 mins; type: functional, cell-based
Rattus norvegicus = species on record: Rattus norvegicus; experiment: Anti-platelet aggregation activity in Sprague-Dawley rat assessed as reduction in bleeding time; type: functional
[12] = Anti-platelet aggregation activity in rat platelet rich plasma assessed as inhibition of ADP-induced aggregation at 250 ug/ml pre-treated for 5 mins followed by ADP addition by hemocytometer analysis; type: functional; set-up: scale not given: the % may be the effect or the level left; details: dose 250 µg/ml
P2Y purinoceptor 12 [13] = target: T1, P2Y purinoceptor 12; experiment: Binding affinity to P2Y12 (unknown origin)
[14] = Lipophilicity, logP of compound; type: physicochemical; details: octanol/water
[15] = Antiplatelet activity in rabbit platelet rich plasma assessed as inhibition of ADP-induced platelet aggregation at 150.8 uM preincubated for 3 mins followed by ADP addition and measured after 5 mins relative to control; type: functional, Oryctolagus cuniculus; set-up: scale not given: the % may be the effect or the level left; details: time 8 min
[16] = Antiplatelet activity in human platelet rich plasma assessed as inhibition of ADP-induced platelet aggregation; type: functional, cell-based
P2Y purinoceptor 12 [17] = target: T1, P2Y purinoceptor 12; experiment: Displacement of [3H]2MeSADP from human P2Y12 preincubated for 5 mins followed by [3H]2MeSADP addition and measured after 15 mins by scintillation counting method
[18] = Half life in human plasma; type: ADME, cell-free
Homo sapiens = experiment: Antiplatelet activity in human assessed as inhibition of ADP-induced platelet aggregation at 100 mg, po after 4 hrs; type: functional; set-up: scale not given: the % may be the effect or the level left
[19] = Anti-platelet aggregation activity in human platelets assessed as inhibition of epinephrine induced aggregation; type: functional, cell-based
P2Y purinoceptor 1 = P2Y purinoceptor 1 (Homo sapiens, UniProt P47900); experiment: Displacement of [3H]2MeSADP from human P2Y1 expressed in U2OS cell membranes incubated for 60 mins by scintillation counting method; set-up: species or system Membrane
Chain of P2Y purinoceptor 1 (P47900 whole entry): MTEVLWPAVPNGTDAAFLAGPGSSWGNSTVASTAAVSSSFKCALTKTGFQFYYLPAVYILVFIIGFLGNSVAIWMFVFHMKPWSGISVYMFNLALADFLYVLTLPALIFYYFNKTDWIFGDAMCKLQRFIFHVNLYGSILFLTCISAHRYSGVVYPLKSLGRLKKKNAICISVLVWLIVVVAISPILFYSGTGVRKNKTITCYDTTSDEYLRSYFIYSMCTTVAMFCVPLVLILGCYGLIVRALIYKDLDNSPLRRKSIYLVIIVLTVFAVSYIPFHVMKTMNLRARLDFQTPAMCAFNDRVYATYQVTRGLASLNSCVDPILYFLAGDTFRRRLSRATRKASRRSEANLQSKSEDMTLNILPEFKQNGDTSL

Structure (SMILES): CCCCOC(=O)N1CCN(C(=O)[C@H](CCP(=O)(O)O)NC(=O)c2cc(N3CC[C@H](OC)C3)nc(-c3ccccc3)n2)CC1
- IC50 [7]: 1 nM

Structure (SMILES): CCOC(=O)N1CCN(C(=O)[C@H](CCC(=O)O)NC(=O)c2cc(OCC(=O)N3CCC[C@H]3C(=O)NC3CCC3)n(-c3cccc(F)c3)n2)CC1
- IC50 [8]: ≤ 11 nM

Structure (SMILES): CCCSc1nc(N[C@@H]2C[C@H]2c2ccccc2)c2nnn([C@@H]3CC[C@H](O)[C@@H](O)[C@H]3O)c2n1
- IC50 (P2Y purinoceptor 12 [10]): 1350 nM

Structure (SMILES): CC(C)CCCC(C)[C@H]1CC[C@]2(C)[C@@H]1[C@H](O)C[C@@H]1[C@@]3(C)CC[C@H](O)C(C)(C)[C@@H]3[C@@H](O[C@@H]3O[C@H](CO)[C@@H](O)[C@H](O)[C@H]3O)C[C@]12C (some centres undefined)
- IC50 [11]: 30900 nM

Structure (SMILES): CCC(C)C(N)C(=O)Oc1cc2c(s1)CCN(C(C(=O)C1CC1)c1ccccc1F)C2.Cl (centres undefined)
- ED50 (Rattus norvegicus): 0.74 mg/kg

Structure (SMILES): CCOC(=O)N1CCN(C(=O)[C@@H](CCC(=O)O)NC(=O)c2cc(Cl)cc(-c3ccccc3)n2)CC1
- IC50 (P2Y purinoceptor 12 [9]): 34 nM

Structure (SMILES): CC(=O)CCC1=C(C)C[C@@H](O[C@@H]2O[C@H](CO[C@@H]3OC[C@@H](O)[C@H](O)[C@H]3O)[C@@H](O)[C@H](O)[C@H]2O)CC1(C)C
- Activity [12]: 89.59%

Structure (SMILES): COc1cc2c(cc1OC)-c1c(C)c3ccc(OC)c(OC)c3c[n+]1CC2 [DEHYDROCORYDALINE]
- Activity [15]: 73.48%

Structure (SMILES): Clc1ccccc1CN1CCc2sccc2C1 [TICLOPIDINE]
- logP [14]: 4.05

Now from value to molecule, other results behind:

- IC50 [1]: 30 nM
Structure (SMILES): CCNC(=O)[C@@H]1CCCN1C(=O)COc1cc(C(=O)N[C@@H](CCC(=O)O)C(=O)N2CCN(C(=O)OCC)CC2)nc2cccc(F)c12

- IC50 (P2Y purinoceptor 12 [2]): 260 nM
Structure (SMILES): CCCC(=O)c1cc(C#N)c(N(C(=O)C2CCNCC2)S(=O)(=O)CCc2ccccc2)nc1C

- IC50 [5]: 197 nM
Structure (SMILES): CC1CC(=O)NN=C1c1ccc(NC(=N)N)cc1 (centres undefined)
- Activity [3]: 95.09%
- Activity [4]: 100%
- Activity [6]: 100%

- IC50 (P2Y purinoceptor 12 [9]): 1 nM
Structure (SMILES): CCCCOC(=O)N1CCN(C(=O)[C@H](CP(=O)(O)O)NC(=O)c2nc(-c3ccccc3)sc2N2CCN(C)CC2)CC1

- IC50 [8]: ≤ 11 nM
Structure (SMILES): CCCCOC(=O)N1CCN(C(=O)[C@H](CCC(=O)O)NC(=O)c2cc(OCC(=O)N3CCC[C@H]3C(=O)N(C)C3CC3)n(-c3ccccc3)n2)CC1

- IC50 (P2Y purinoceptor 12 [9]): 1 nM
Structure (SMILES): CCOC(=O)N1CCN(C(=O)[C@H](Cc2ccc(P(=O)(O)O)cc2)NC(=O)c2csc(-c3ccccc3)n2)CC1

- IC50 (P2Y purinoceptor 12 [9]): 1 nM
Structure (SMILES): CCCCOC(=O)N1CCN(C(=O)[C@H](CP(=O)(O)O)NC(=O)c2nc(-c3ccccc3)sc2N(C)CCCC)CC1

- IC50 [1]: 30 nM
Structure (SMILES): CCOC(=O)N1CCN(C(=O)[C@H](CCC(=O)O)NC(=O)c2cc(O[C@H](C)C(=O)N3CCC[C@H]3C(=O)NC3CCCC3)c3ccc(C)cc3n2)CC1

- IC50 (P2Y purinoceptor 12 [13]): 320 nM
Structure (SMILES): Cc1cnc(-c2cnc(N3CCN(C(=O)NS(=O)(=O)c4ccccc4)CC3)c(Cl)c2)o1

- logP [14]: 3.74
Structure (SMILES): COC(=O)[C@H](c1ccccc1Cl)N1CCc2sccc2C1 [CLOPIDOGREL]

- IC50 [16]: 10000 nM
- IC50 (P2Y purinoceptor 12 [17]): 50 nM
- half-life [18]: 12 h
Structure (SMILES): CNc1cc2[nH]c(=O)n(-c3ccc(NC(=O)NS(=O)(=O)c4ccc(Cl)s4)cc3)c(=O)c2cc1F [ELINOGREL]
- Activity (Homo sapiens): 60%

- IC50 [19]: 20 nM
Structure (SMILES): C[C@@H]1CC[C@]2(C(=O)O)CC[C@]3(C)C(=CC[C@@H]4[C@@]5(C)CC[C@H](O)C(C)(C)[C@@H]5CC[C@]43C)[C@@H]2[C@]1(C)O [POMOLIC ACID]

- logP [14]: 3.42
Structure (SMILES): CC(=O)Oc1cc2c(s1)CCN(C(C(=O)C1CC1)c1ccccc1F)C2 (centres undefined) [PRASUGREL]

- Ki (P2Y purinoceptor 1): 20300 nM
Structure (SMILES): O=C(/C=C/c1ccc(O)c(O)c1/C=C/c1ccc(O)c(O)c1)O[C@H](Cc1ccc(O)c(O)c1)C(=O)O [SALVIANOLIC ACID A]
